Assay results from patent US8075922B2, “Method of co-infusing a deoxygenated hemoglobin containing blood substitute and inorganic nitrite” (Montana State University-Bozeman, priority 2002, dated 2011).

Tested on: human patient
Details: sodium nitrite in phosphate buffered saline infused at 1 micromole per minute, begun before red blood cell transfusion

With `O=NO` [sodium nitrite] the “adverse effect of red blood cell transfusion” value was “without adverse effect”.
